In brackets after ≈: the same amount, converted by molar mass. Where two headings read alike, the source gives them in different places.
Tests used:
Experiment in all cases: MIC, CLSI broth microdilution
Format in all cases: cell-based
[1] = system: S. pneumoniae ASPN1018 (Fluoroquinolone-resistant); conditions: Table 3
Method in brief: (§1)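 CLSI M7-A7 broth microdilution in Mueller Hinton Broth using two-fold compound serial dilutions. Inoculum was prepared from the previous day's agar colonies at a final 5×10^5 CFU/mL. Plates were incubated at 35° C for 20 hours in ambient air.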

[2] = system: A. baumannii AABA1020 (Fluoroquinolone-resistant); conditions: Table 3
Method in brief: as §1

[3] = system: S. pneumoniae ASPN002 (Fluoroquinolone-susceptible, ATCC10813); conditions: Table 3
Method in brief: as §1

[4] = system: P. aeruginosa APAE001 (Fluoroquinolone-susceptible, ATCC27853); conditions: for MIC: Pseudomonas aeruginosa
Method in brief: as §1

[5] = system: E. coli AECO086 (Fluoroquinolone-resistant); conditions: Table 3
Method in brief: as §1

[6] = system: S. pneumoniae ASPN1027 (Fluoroquinolone-resistant); conditions: for MIC: Streptococcus pneumoniae
Method in brief: as §1

[7] = system: S. aureus ASAU1031 (Fluoroquinolone-resistant); conditions: for MIC: Staphylococcus aureus
Method in brief: as §1

[8] = system: S. aureus ASAU002 (Fluoroquinolone-susceptible, ATCC33591 (MRSA)); conditions: Table 3
Method in brief: as §1

[9] = system: A. baumannii AABA1065 (Fluoroquinolone-susceptible); conditions: for MIC: Acinetobacter baumannii
Method in brief: as §1

[10] = system: E. coli AECO002 (Fluoroquinolone susceptible); conditions: Table 3
Method in brief: as §1

[11] = system: A. baumannii AABA1009 (Fluoroquinolone-resistant)
Method in brief: as §1

[12] = system: S. aureus ASAU001 (Fluoroquinolone-susceptible, ATCC29213); conditions: for MIC: Staphylococcus aureus
Method in brief: as §1

[13] = system: E. coli AECO066 (Fluoroquinolone-resistant); conditions: for MIC: Escherichia coli
Method in brief: as §1

[14] = system: S. aureus ASAU1033 (Fluoroquinolone-resistant); conditions: Table 3
Method in brief: as §1

[15] = system: S. pneumoniae ASPN001 (Fluoroquinolone-susceptible, ATCC49619); conditions: for MIC: Streptococcus pneumoniae
Method in brief: as §1

[16] = system: P. aeruginosa APAE054 (Fluoroquinolone-resistant); conditions: for MIC: Pseudomonas aeruginosa
Method in brief: as §1

[17] = system: E. coli AECO001 (Fluoroquinolone susceptible, ATCC25922); conditions: for MIC: Escherichia coli
Method in brief: as §1

[18] = system: P. aeruginosa APAE002 (Fluoroquinolone susceptible); conditions: Table 3
Method in brief: as §1

Question: What does the source list for NC1CC2CC=Cc3c(c(F)cc4c(=O)c(C(=O)O)cn(C5CC5)c34)N2C1.O=C(O)C(F)(F)F [7C/30, (7aS,9S)-9-Amino-4-cyclopropyl-12-fluoro-1-oxo-4,7,7a,8,9,10-hexahydro-1H-pyrrolo[1′,2′:1,7]azepino-[2,3-h]quinoline-2-carboxylic acid trifluoroacetate]?
Answer: MIC ASPN1018 [1]: C (MIC's of 2.0 μg/mL to 8.0 μg/mL = C); MIC AABA1020 [2]: D (MIC's of greater than 8.0 μg/mL = D); MIC ASPN002 [3]: C (MIC's of 2.0 μg/mL to 8.0 μg/mL = C); MIC APAE 001 ([4]; Table 2): C (MIC's of greater than 8.0 μg/mL = C); MIC APAE 001 ([4]; Table 3): D (MIC's of greater than 8.0 μg/mL = D); MIC AECO086 [5]: D (MIC's of greater than 8.0 μg/mL = D); MIC ASPN 1027 ([6]; Table 2): B (MIC's of greater than 1.0 μg/mL to 8.0 μg/mL = B); MIC ASPN 1027 ([6]; Table 3): C (MIC's of 2.0 μg/mL to 8.0 μg/mL = C); MIC ASAU 1031 ([7]; Table 2): C (MIC's of greater than 8.0 μg/mL = C); MIC ASAU 1031 ([7]; Table 3): D (MIC's of greater than 8.0 μg/mL = D); MIC ASAU002 [8]: B (MIC's of 1.0 μg/mL to 2.0 μg/mL = B); MIC AABA 1065 ([9]; Table 2): B (MIC's of greater than 1.0 μg/mL to 8.0 μg/mL = B); MIC AABA 1065 ([9]; Table 3): C (MIC's of 2.0 μg/mL to 8.0 μg/mL = C); MIC AECO002 [10]: B (MIC's of 1.0 μg/mL to 2.0 μg/mL = B); MIC AABA 1009 ([11]; Table 2): C (MIC's of greater than 8.0 μg/mL = C); MIC ASAU 001 ([12]; Table 2): B (MIC's of greater than 1.0 μg/mL to 8.0 μg/mL = B); MIC ASAU 001 ([12]; Table 3): B (MIC's of 1.0 μg/mL to 2.0 μg/mL = B); MIC AECO 066 ([13]; Table 2): C (MIC's of greater than 8.0 μg/mL = C); MIC AECO 066 ([13]; Table 3): D (MIC's of greater than 8.0 μg/mL = D); MIC ASAU1033 [14]: D (MIC's of greater than 8.0 μg/mL = D); MIC ASPN 001 ([15]; Table 2): B (MIC's of greater than 1.0 μg/mL to 8.0 μg/mL = B); MIC ASPN 001 ([15]; Table 3): C (MIC's of 2.0 μg/mL to 8.0 μg/mL = C); MIC APAE 054 ([16]; Table 2): C (MIC's of greater than 8.0 μg/mL = C); MIC APAE 054 ([16]; Table 3): D (MIC's of greater than 8.0 μg/mL = D); MIC AECO 001 ([17]; Table 2, 35° C., 20 hours): B (MIC's of greater than 1.0 μg/mL to 8.0 μg/mL = B); MIC AECO 001 ([17]; Table 3): B (MIC's of 1.0 μg/mL to 2.0 μg/mL = B); MIC APAE002 [18]: D (MIC's of greater than 8.0 μg/mL = D)

Question: COc1c(N2C[C@@H]3CCCN[C@@H]3C2)c(F)cc2c(=O)c(C(=O)O)cn(C3CC3)c12 [Moxifloxacin, reference compound] was tested. Which MIC ([1]; Streptococcus pneumoniae) did it give?
Answer: The MIC was 2 to 8 µg/mL (≈ 4.98 to 19.9 µM).

Question: And the MIC ([2]; Acinetobacter baumannii)?
Answer: Its MIC is over 8 µg/mL.

Question: What about the MIC ([3]; Streptococcus pneumoniae) of the same compound?
Answer: Its MIC is under 1 µg/mL.

Question: And the MIC ([4]; Table 2, read-out: MIC APAE 001)?
Answer: Its MIC is 1 to 8 µg/mL (≈ 2.49 to 19.9 µM).

Question: And the MIC ([4]; Table 3)?
Answer: Its MIC is 1 to 2 µg/mL (≈ 2.49 to 4.98 µM).

Question: And the MIC ([5]; Escherichia coli)?
Answer: Its MIC is over 8 µg/mL.

Question: And the MIC ([6]; Table 2, read-out: MIC ASPN 1027)?
Answer: Its MIC is 1 to 8 µg/mL (≈ 2.49 to 19.9 µM).

Question: And the MIC ([6]; Table 3)?
Answer: The MIC was 2 to 8 µg/mL (≈ 4.98 to 19.9 µM).

Question: And the MIC ([7]; Table 2, read-out: MIC ASAU 1031)?
Answer: Its MIC is 1 to 8 µg/mL (≈ 2.49 to 19.9 µM).

Question: And the MIC ([7]; Table 3)?
Answer: The MIC was 2 to 8 µg/mL (≈ 4.98 to 19.9 µM).

Question: What about the MIC ([8]; Staphylococcus aureus) of the same compound?
Answer: The MIC was under 1 µg/mL.

Question: What about the MIC ([9]; Table 2, read-out: MIC AABA 1065) of the same compound?
Answer: The MIC was at most 1 µg/mL.

Question: What about the MIC ([9]; Table 3) of the same compound?
Answer: Its MIC is under 1 µg/mL.

Question: And the MIC ([10]; Escherichia coli)?
Answer: The MIC was under 1 µg/mL.

Question: What about the MIC ([11]; Acinetobacter baumannii, Table 2, read-out: MIC AABA 1009) of the same compound?
Answer: The MIC was over 8 µg/mL.

Question: What about the MIC ([12]; Table 2, read-out: MIC ASAU 001) of the same compound?
Answer: The MIC was at most 1 µg/mL.

Question: And the MIC ([12]; Table 3)?
Answer: The MIC was under 1 µg/mL.

Question: What about the MIC ([13]; Table 2, read-out: MIC AECO 066) of the same compound?
Answer: Its MIC is over 8 µg/mL.

Question: What about the MIC ([13]; Table 3) of the same compound?
Answer: The MIC was over 8 µg/mL.

Question: What about the MIC ([14]; Staphylococcus aureus) of the same compound?
Answer: Its MIC is over 8 µg/mL.

Question: And the MIC ([15]; Table 2, read-out: MIC ASPN 001)?
Answer: Its MIC is at most 1 µg/mL.

Question: What about the MIC ([15]; Table 3) of the same compound?
Answer: Its MIC is under 1 µg/mL.

Question: What about the MIC ([16]; Table 2, read-out: MIC APAE 054) of the same compound?
Answer: Its MIC is over 8 µg/mL.

Question: What about the MIC ([16]; Table 3) of the same compound?
Answer: The MIC was over 8 µg/mL.

Question: What about the MIC ([17]; Table 2, 35° C., 20 hours, read-out: MIC AECO 001) of the same compound?
Answer: Its MIC is at most 1 µg/mL.

Question: And the MIC ([17]; Table 3)?
Answer: Its MIC is under 1 µg/mL.

Question: And the MIC ([18]; Pseudomonas aeruginosa)?
Answer: The MIC was 1 to 2 µg/mL (≈ 2.49 to 4.98 µM).

— US20120058989A1, “ANTIBACTERIAL FLUOROQUINOLONE ANALOGS” (Achaogen, Inc., priority 2008, published 2012)
